# Experimental data published in the supplement of paper PMC10307832.
# Tests used:
# Test in all cases: relative viability (nuclei count vs DMSO), 5 days (fraction); higher = more cells survive
# NCI-H647 = test system: NCI-H647
# Procedure, shortened: (§1)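 For relative viability, nuclei counts in treated wells were divided by those in vehicle wells. Lung cancer cell lines had been pin-tool dosed in 1536-well plates the day after seeding and cultured for 5 days, then fixed and stained in one step (final 0.05% Triton X-100, 1% formaldehyde, 1 ug/ml Hoechst) and imaged at 4×. Doses were one drug alone or a fixed anchor-drug dose plus five library-drug doses (not always all listed) in √10 steps, and values are duplicate-plate medians.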
# EMC-BAC-2 = test system: EMC-BAC-2
# Procedure, shortened: as §1
# NCI-H661 = test system: NCI-H661
# Procedure, shortened: as §1
# NCI-H1915 = test system: NCI-H1915
# Procedure, shortened: as §1
# H3255 = test system: H3255
# Procedure, shortened: as §1
# NCI-H2023 = test system: NCI-H2023
# Procedure, shortened: as §1
# SW 1573 = test system: SW 1573
# Procedure, shortened: as §1
# LCLC-97TM1 = test system: LCLC-97TM1
# Procedure, shortened: as §1
# NCI-H2347 = test system: NCI-H2347
# Procedure, shortened: as §1
# LXF-289 = test system: LXF-289
# Procedure, shortened: as §1
# EPLC-272H = test system: EPLC-272H
# Procedure, shortened: as §1
smiles,measurement,setting,value
Nc1ccn([C@@H]2O[C@H](CO)[C@@H](O)[C@@H]2O)c(=O)n1 [Cytarabine] + Nc1nc2[nH]cc(CCc3ccc(C(=O)N[C@@H](CCC(=O)O)C(=O)O)cc3)c2c(=O)[nH]1 [Pemetrexed] (partner 0.2 µM),relative viability,NCI-H647; first compound 0.05 µM,0.0984
same,relative viability,NCI-H647; first compound 0.1581 µM,0.0797
same,relative viability,NCI-H647; first compound 0.5 µM,0.0683
same,relative viability,EMC-BAC-2; first compound 0.005 µM,0.476
same,relative viability,EMC-BAC-2; first compound 0.01581 µM,0.446
same,relative viability,EMC-BAC-2; first compound 0.05 µM,0.31
same,relative viability,EMC-BAC-2; first compound 0.1581 µM,0.244
same,relative viability,EMC-BAC-2; first compound 0.5 µM,0.247
same,relative viability,NCI-H661; first compound 0.005 µM,0.94
same,relative viability,NCI-H661; first compound 0.01581 µM,0.849
same,relative viability,NCI-H661; first compound 0.05 µM,0.851
same,relative viability,NCI-H661; first compound 0.1581 µM,0.609
same,relative viability,NCI-H661; first compound 0.5 µM,0.373
same,relative viability,NCI-H1915; first compound 0.005 µM,0.506
same,relative viability,NCI-H1915; first compound 0.01581 µM,0.563
same,relative viability,NCI-H1915; first compound 0.05 µM,0.54
same,relative viability,NCI-H1915; first compound 0.1581 µM,0.45
same,relative viability,NCI-H1915; first compound 0.5 µM,0.333
same,relative viability,H3255; first compound 0.005 µM,0.625
same,relative viability,H3255; first compound 0.01581 µM,0.565
same,relative viability,H3255; first compound 0.05 µM,0.506
same,relative viability,H3255; first compound 0.1581 µM,0.526
same,relative viability,H3255; first compound 0.5 µM,0.432
same,relative viability,NCI-H2023; first compound 0.005 µM,0.193
same,relative viability,NCI-H2023; first compound 0.01581 µM,0.126
same,relative viability,NCI-H2023; first compound 0.05 µM,0.105
same,relative viability,NCI-H2023; first compound 0.1581 µM,0.0804
same,relative viability,NCI-H2023; first compound 0.5 µM,0.0895
same,relative viability,SW 1573; first compound 0.005 µM,0.675
same,relative viability,SW 1573; first compound 0.01581 µM,0.576
same,relative viability,SW 1573; first compound 0.05 µM,0.386
same,relative viability,SW 1573; first compound 0.1581 µM,0.107
same,relative viability,SW 1573; first compound 0.5 µM,0.0809
same,relative viability,LCLC-97TM1; first compound 0.005 µM,0.209
same,relative viability,LCLC-97TM1; first compound 0.01581 µM,0.179
same,relative viability,LCLC-97TM1; first compound 0.05 µM,0.0983
same,relative viability,LCLC-97TM1; first compound 0.1581 µM,0.108
same,relative viability,LCLC-97TM1; first compound 0.5 µM,0.0633
same,relative viability,NCI-H2347; first compound 0.005 µM,0.392
same,relative viability,NCI-H2347; first compound 0.01581 µM,0.522
same,relative viability,NCI-H2347; first compound 0.05 µM,0.439
same,relative viability,NCI-H2347; first compound 0.1581 µM,0.44
same,relative viability,NCI-H2347; first compound 0.5 µM,0.391
same,relative viability,LXF-289; first compound 0.005 µM,0.729
same,relative viability,LXF-289; first compound 0.01581 µM,0.864
same,relative viability,LXF-289; first compound 0.05 µM,0.808
same,relative viability,LXF-289; first compound 0.1581 µM,0.36
same,relative viability,LXF-289; first compound 0.5 µM,0.268
same,relative viability,EPLC-272H; first compound 0.005 µM,0.232
same,relative viability,EPLC-272H; first compound 0.01581 µM,0.338
same,relative viability,EPLC-272H; first compound 0.05 µM,0.289
same,relative viability,EPLC-272H; first compound 0.1581 µM,0.27
same,relative viability,EPLC-272H; first compound 0.5 µM,0.222
